The values that follow come from paper PMC3425385 (2011).

The experiment deals with T1, KIAA1363 (AADACL1, NCEH1) (Homo sapiens, UniProt Q6PIU2).
T1 sequence (Q6PIU2 1-408): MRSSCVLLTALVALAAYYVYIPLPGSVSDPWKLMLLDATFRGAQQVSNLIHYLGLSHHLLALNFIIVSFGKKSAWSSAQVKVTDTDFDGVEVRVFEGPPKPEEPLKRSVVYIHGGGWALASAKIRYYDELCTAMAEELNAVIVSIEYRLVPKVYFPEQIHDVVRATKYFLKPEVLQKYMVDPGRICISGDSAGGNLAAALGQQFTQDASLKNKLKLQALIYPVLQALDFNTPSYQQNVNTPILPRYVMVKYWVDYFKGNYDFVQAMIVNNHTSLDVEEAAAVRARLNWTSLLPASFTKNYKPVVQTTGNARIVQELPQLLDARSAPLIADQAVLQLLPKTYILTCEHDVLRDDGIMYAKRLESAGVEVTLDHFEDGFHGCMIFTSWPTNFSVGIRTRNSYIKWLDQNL
The experiment is described as follows: competitive gel-based ABPP with FP-Rh in PC3 cells in situ. It is filed as cell-based.

By IC50 is commonly meant the concentration that gives 50% inhibition. A low value points to inhibition by little substance. For JW576, the IC50 is 340 ± 150 nM.
